# Source: ChEMBL document CHEMBL3393045, “Discovery of thienoimidazole-based HCV NS5A inhibitors. Part 2: non-symmetric inhibitors with potent activity against genotype 1a and 1b” (Bioorg Med Chem Lett, 2015)
# Columns and labels:
# [1] = tested on: Rattus norvegicus; experiment: (§1) Cmax in Sprague-Dawley rat at 3 mg/kg, po; type: ADME, organism-based; set-up: dose 3 mg/kg, route oral; conditions: in vivo
# [2] = Cytotoxicity against human HuhET cells by [3H]thymidine incorporation assay; type: cell-based
# [3] = Metabolic stability in rat liver microsomes assessed as remaining parent compound level at 5 uM after 30 mins in presence of NADPH and UDPGA; type: ADME; conditions: read-out: Stability
# [4] = biological target: Voltage-gated inwardly rectifying potassium channel KCNH2 (Homo sapiens, UniProt Q12809); experiment: Inhibition of human ERG by Q-patch assay
# Chain of Voltage-gated inwardly rectifying potassium channel KCNH2 (Q12809 whole entry): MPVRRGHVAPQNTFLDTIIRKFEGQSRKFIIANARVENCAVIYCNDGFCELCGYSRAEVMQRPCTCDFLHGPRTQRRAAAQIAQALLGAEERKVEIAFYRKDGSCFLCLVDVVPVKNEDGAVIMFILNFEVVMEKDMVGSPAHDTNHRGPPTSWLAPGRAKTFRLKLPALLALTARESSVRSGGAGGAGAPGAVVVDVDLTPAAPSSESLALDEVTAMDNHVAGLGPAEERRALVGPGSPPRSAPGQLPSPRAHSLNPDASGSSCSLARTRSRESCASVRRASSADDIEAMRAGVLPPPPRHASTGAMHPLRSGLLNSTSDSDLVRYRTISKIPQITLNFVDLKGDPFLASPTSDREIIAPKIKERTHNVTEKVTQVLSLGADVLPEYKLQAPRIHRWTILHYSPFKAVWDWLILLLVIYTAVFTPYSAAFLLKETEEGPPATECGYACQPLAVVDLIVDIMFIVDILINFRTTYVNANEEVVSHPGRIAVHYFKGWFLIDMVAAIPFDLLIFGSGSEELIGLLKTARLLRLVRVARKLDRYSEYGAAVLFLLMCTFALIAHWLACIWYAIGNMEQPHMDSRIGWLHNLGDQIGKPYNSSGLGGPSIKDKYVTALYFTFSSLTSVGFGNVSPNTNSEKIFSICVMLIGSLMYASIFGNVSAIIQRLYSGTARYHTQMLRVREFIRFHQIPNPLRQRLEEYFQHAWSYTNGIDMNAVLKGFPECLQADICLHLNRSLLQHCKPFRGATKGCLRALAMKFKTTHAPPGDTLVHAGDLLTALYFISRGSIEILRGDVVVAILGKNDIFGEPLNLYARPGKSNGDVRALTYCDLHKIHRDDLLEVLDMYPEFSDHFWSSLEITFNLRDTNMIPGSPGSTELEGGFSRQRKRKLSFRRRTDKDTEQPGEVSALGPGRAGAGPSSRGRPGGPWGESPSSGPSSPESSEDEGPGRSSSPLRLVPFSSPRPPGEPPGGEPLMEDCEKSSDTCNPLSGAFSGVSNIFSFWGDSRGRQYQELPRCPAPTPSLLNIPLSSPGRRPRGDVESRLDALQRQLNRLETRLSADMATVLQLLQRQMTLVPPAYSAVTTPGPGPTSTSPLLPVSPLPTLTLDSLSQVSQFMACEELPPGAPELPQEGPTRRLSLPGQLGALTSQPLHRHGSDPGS
# [5] = Metabolic stability in human liver microsomes assessed as remaining parent compound level at 5 uM after 30 mins in presence of NADPH and UDPGA; type: ADME; conditions: read-out: Stability
# [6] = biological target: Cytochrome P450 3A4 (Homo sapiens, UniProt P08684); experiment: Inhibition of CYP3A4 (unknown origin); type: ADME
# Chain of Cytochrome P450 3A4 (P08684 whole entry): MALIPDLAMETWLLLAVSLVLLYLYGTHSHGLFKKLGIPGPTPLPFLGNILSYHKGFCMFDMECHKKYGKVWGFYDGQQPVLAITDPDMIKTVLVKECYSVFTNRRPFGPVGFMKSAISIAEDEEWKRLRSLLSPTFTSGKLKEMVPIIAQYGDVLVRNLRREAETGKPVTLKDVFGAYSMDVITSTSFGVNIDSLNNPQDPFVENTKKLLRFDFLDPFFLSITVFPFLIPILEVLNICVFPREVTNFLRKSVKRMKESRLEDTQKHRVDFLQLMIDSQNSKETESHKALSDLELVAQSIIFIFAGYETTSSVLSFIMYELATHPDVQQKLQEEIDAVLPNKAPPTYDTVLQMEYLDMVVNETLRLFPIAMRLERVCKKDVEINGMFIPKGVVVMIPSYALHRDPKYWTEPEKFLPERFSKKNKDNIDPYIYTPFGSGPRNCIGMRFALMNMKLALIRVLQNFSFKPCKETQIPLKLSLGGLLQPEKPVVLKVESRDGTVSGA
# [7] = biological target: Cytochrome P450 2D6 (Homo sapiens, UniProt P10635); experiment: Inhibition of CYP2D6 (unknown origin); type: ADME
# Chain of Cytochrome P450 2D6 (P10635 whole entry): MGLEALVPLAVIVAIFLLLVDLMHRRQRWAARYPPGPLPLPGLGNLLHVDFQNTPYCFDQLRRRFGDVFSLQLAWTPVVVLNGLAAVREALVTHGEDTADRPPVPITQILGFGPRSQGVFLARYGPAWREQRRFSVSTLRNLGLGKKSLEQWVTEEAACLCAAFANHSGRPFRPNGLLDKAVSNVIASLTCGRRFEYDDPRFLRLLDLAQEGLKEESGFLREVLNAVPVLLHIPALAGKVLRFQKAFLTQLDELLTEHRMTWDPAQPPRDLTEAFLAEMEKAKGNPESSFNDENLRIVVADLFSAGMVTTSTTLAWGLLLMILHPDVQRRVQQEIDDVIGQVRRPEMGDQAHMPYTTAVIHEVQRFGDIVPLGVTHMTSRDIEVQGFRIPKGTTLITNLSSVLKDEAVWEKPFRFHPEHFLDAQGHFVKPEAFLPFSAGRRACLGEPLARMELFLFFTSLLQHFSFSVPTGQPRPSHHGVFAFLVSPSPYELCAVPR
# [8] = biological target: Cytochrome P450 2C9 (Homo sapiens, UniProt P11712); experiment: Inhibition of CYP2C9 (unknown origin); type: ADME
# Chain of Cytochrome P450 2C9 (P11712 whole entry): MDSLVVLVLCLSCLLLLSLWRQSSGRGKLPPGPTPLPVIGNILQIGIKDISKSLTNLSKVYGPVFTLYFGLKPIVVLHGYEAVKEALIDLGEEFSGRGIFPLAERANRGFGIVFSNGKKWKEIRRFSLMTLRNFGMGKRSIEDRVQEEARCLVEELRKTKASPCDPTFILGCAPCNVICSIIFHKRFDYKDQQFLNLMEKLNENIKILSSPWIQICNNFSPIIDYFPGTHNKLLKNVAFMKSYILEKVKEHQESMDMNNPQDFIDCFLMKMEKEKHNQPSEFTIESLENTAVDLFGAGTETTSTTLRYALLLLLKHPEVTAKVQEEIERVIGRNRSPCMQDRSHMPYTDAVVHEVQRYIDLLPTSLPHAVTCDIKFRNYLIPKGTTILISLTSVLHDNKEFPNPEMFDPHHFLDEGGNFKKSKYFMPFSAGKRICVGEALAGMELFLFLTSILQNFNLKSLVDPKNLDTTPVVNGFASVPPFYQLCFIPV
# [9] = tested on: Hepatitis C virus; experiment: Antiviral activity against HCV genotype 1a infected in W11.8 cells assessed as decrease in NS5A expression in replicon cell after 4 days by luminescence based ELISA; type: functional, Hepacivirus hominis; conditions: subtype 1a, W11.8, 96 h
# [10] = tested on: Hepatitis C virus; experiment: Antiviral activity against HCV genotype 1b infected in human Huh-5.2 cells assessed as decrease in HCV replicon RNA replication after 4 days by luciferase assay; type: functional, cell-based, Hepacivirus hominis; conditions: Huh-5-2, 96 h
# [11] = as §1; type: ADME, organism-based; set-up: dose 3 mg/kg, route oral; conditions: Sprague-Dawley, in vivo
# [12] = Volume of distribution at steady state in Sprague-Dawley rat at 3 mg/kg, iv; type: ADME, organism-based; set-up: dose 3 mg/kg, route intravenous; conditions: in vivo, read-out: Vdss
# [13] = AUC (0 to 8 hrs) in Sprague-Dawley rat at 3 mg/kg, po; type: ADME, organism-based; set-up: time < 8 hr, dose 3 mg/kg, route oral; conditions: plasma
# [14] = Oral bioavailability in Sprague-Dawley rat at 3 mg/kg; type: ADME, organism-based; conditions: in vivo
# [15] = Clearance in Sprague-Dawley rat at 3 mg/kg, iv; type: ADME, organism-based; set-up: dose 3 mg/kg, route intravenous; conditions: in vivo
# [16] = Half life in Sprague-Dawley rat at 3 mg/kg, po; type: ADME, organism-based; set-up: dose 3 mg/kg, route oral; conditions: in vivo
# [17] = Half life in Sprague-Dawley rat at 3 mg/kg, iv; type: ADME, organism-based; set-up: dose 3 mg/kg, route intravenous; conditions: in vivo
Compound,EC50 [9],EC50 [10],CC50 [2],further results
COC(=O)N[C@H](C(=O)N1C[C@@H](C)C[C@H]1c1ncc(-c2ccc(-c3ccc(-c4cc5[nH]c([C@@H]6C[C@H](C)CN6C(=O)[C@@H](NC(=O)OC)C(C)C)nc5s4)cc3)cc2)[nH]1)C(C)C,–,–,> 20 µM,"Cmax [1]: 0.03 µg/mL; remaining at 0.5 h, 5 µM [3]: 100%; IC50 [4]: > 40 µM; remaining at 0.5 h, 5 µM [5]: 90%; IC50 [6]: > 30 µM; IC50 [7]: > 30 µM; IC50 [8]: > 30 µM"
COC(=O)N[C@H](C(=O)N1C[C@@H](C)C[C@H]1c1nc2cc(-c3ccc(-c4cc5[nH]c([C@@H]6C[C@H](C)CN6C(=O)[C@@H](NC(=O)OC)C(C)C)nc5s4)cc3)ccc2[nH]1)C(C)C,0.6 nM,–,> 20 µM,–
COC(=O)N[C@H](C(=O)N1CCC[C@H]1c1nc2cc(C#Cc3cc4[nH]c([C@@H]5CCCN5C(=O)[C@@H](NC(=O)OC)C(C)C)nc4s3)ccc2[nH]1)C(C)C,828 nM,0.215 nM,–,–
COC(=O)N[C@H](C(=O)N1C[C@@H](C)C[C@H]1c1nc2cc(C#Cc3cc4[nH]c([C@@H]5C[C@H](C)CN5C(=O)[C@@H](NC(=O)OC)C(C)C)nc4s3)ccc2[nH]1)C(C)C,39 nM,0.011 nM,–,–
COC(=O)N[C@H](C(=O)N1C[C@@H](C)C[C@H]1c1nc2sc(-c3ccc(-c4ccc5c(c4)nc([C@@H]4C[C@H](C)CN4C(=O)[C@@H](NC(=O)OC)C(C)C)n5C)cc3)cc2[nH]1)C(C)C,13 nM,0.019 nM,> 20 µM,–
COC(=O)N[C@H](C(=O)N1C[C@@H](C)C[C@H]1c1cc2cc(-c3ccc(-c4cc5[nH]c([C@@H]6C[C@H](C)CN6C(=O)[C@@H](NC(=O)OC)C(C)C)nc5s4)cc3)ccc2[nH]1)C(C)C,100 nM,0.045 nM,> 20 µM,–
COC(=O)N[C@H](C(=O)N1C[C@@H](C)C[C@H]1c1nc2sc(-c3ccc(-c4ccc5oc([C@@H]6C[C@H](C)CN6C(=O)[C@@H](NC(=O)OC)C(C)C)nc5c4)cc3)cc2[nH]1)C(C)C,18 nM,0.115 nM,> 20 µM,–
COC(=O)N[C@H](C(=O)N1C[C@@H](C)C[C@H]1c1cn2ccc(-c3ccc(-c4cc5[nH]c([C@@H]6C[C@H](C)CN6C(=O)[C@@H](NC(=O)OC)C(C)C)nc5s4)cc3)cc2n1)C(C)C,0.3 nM,0.041 nM,15.3 µM,–
COC(=O)N[C@H](C(=O)N1C[C@@H](C)C[C@H]1c1ncc(-c2ccc(-c3cc4sc(-c5cc6[nH]c([C@@H]7C[C@H](C)CN7C(=O)[C@@H](NC(=O)OC)C(C)C)nc6s5)cc4s3)cc2)[nH]1)C(C)C,0.053 nM,0.012 nM,> 20 µM,–

# Further compounds by falling EC50 [9], results first:
EC50 [9],EC50 [10],Compound,CC50 [2],further results
0.037 nM,0.004 nM,COC(=O)N[C@H](C(=O)N1C[C@@H](C)C[C@H]1c1ncc(-c2ccc(-c3ccc(-c4cc5[nH]c([C@@H]6C[C@H](C)CN6C(=O)[C@@H](NC(=O)OC)C(C)C)nc5s4)c(C)c3)cc2)[nH]1)C(C)C,> 20 µM,–
0.037 nM,0.002 nM,COC(=O)N[C@H](C(=O)N1C[C@@H](C)C[C@H]1c1ncc(-c2ccc(-c3ccc(-c4cc5[nH]c([C@@H]6C[C@H](C)CN6C(=O)[C@@H](NC(=O)OC)C(C)C)nc5s4)cc3C)cc2)[nH]1)C(C)C,19.2 µM,–
0.023 nM,0.002 nM,COC(=O)N[C@H](C(=O)N1C[C@@H](C)C[C@H]1c1ncc(-c2ccc(-c3ccc(-c4cc5[nH]c([C@@H]6C[C@H](C)CN6C(=O)[C@@H](NC(=O)OC)C(C)C)nc5s4)c(F)c3)cc2)[nH]1)C(C)C,> 20 µM,–
0.023 nM,0.006 nM,COC(=O)N[C@H](C(=O)N1C[C@@H](C)C[C@H]1c1ncc(-c2ccc(-c3ccc(-c4cc5[nH]c([C@@H]6C[C@H](C)CN6C(=O)[C@@H](NC(=O)OC)C(C)C)nc5s4)cc3F)cc2)[nH]1)C(C)C,20 µM,–
0.017 nM,0.004 nM,COC(=O)N[C@H](C(=O)N1C[C@@H](C)C[C@H]1c1ncc(-c2ccc(-c3ccc(-c4cc5[nH]c([C@@H]6C[C@H](C)CN6C(=O)[C@@H](NC(=O)OC)C(C)C)nc5s4)s3)cc2)[nH]1)C(C)C,13.3 µM,"Cmax [11]: 10 ng/mL; Vd [12]: 3.8 L/kg; remaining at 0.5 h, 5 µM [3]: 100%; AUC(0-t) at 8 h [13]: 440 ng·h/mL; IC50 [4]: 25.1 µM; remaining at 0.5 h, 5 µM [5]: 100%; IC50 [6]: > 30 µM; bioavailability [14]: 11%; IC50 [7]: > 30 µM; clearance [15]: 6.9 mL/min/kg; half-life [16]: 588 min; half-life [17]: 402 min; IC50 [8]: 21 µM"
